The values below are quoted from earlier work in patent US8475827B2, “Tissue implants for implantation and methods for preparing the same” (CryoLife, Inc., priority 2010, dated 2013).

SMILES strings stand for the structures.

This series has as its system sensitive bacteria. The settings on record: literature review.

On to `NCC[C@H](O)C(=O)N[C@@H]1C[C@H](N)[C@@H](O[C@H]2O[C@H](CN)[C@@H](O)[C@H](O)[C@H]2O)[C@H](O)[C@H]1O[C@H]1O[C@H](CO)[C@@H](O)[C@H](N)[C@H]1O` [amikacin], for which the “minimum inhibitory concentration against sensitive bacteria (MIC) range” value was 0.125 to 32 µg/mL.
